Converted amounts (≈) assume the structure as drawn.
How the values were obtained:
[1] = Physicochemical properties of acalabrutinib maleate monohydrate (Table 2)
physchem = settings: pH 6, water
Procedure: In addition, the solubility of acalabrutinib maleate was measured in buffered solutions representative of the media used for dissolution of acalabrutinib maleate tablets.

[2] = Two-stage pH shift dissolution of acalabrutinib salts; format: physicochemical; settings: pH shift method, both starting media; FIGS. 11 and 12
Procedure: Phosphate, oxalate, and maleate salts of acalabrutinib were evaluated using a two-stage in vitro dissolution method known as a pH shift method. The initial medium was either deionized water or a simulated gastric fluid containing hydrochloric acid and sodium chloride and pH adjusted to 1.8. After the salts were in the initial medium for 30 minutes, the medium was then changed to a FaSSIF-V2 medium by addition of a double strength concentrate to give a final pH of 6.5. The FaSSIF-V2 medium contained a sodium phosphate buffer with sodium chloride, sodium taurocholate, and lecithin. The dissolution testing was conducted using USP dissolution apparatus 2 (paddle) operating at 50 RPM at 37 ± 0.5° C. in 250 mL of medium for first 30 minutes and then in 500 mL of medium post-shift. Samples from the dissolution medium were pulled from the aqueous phase at predetermined time points and assayed by HPLC. FIGS. 2 and 3 show the dissolution profiles of the three salts in the simulated gastric fluid/FaSSIF-V2 media and the deionized water/FaSSIF-V2 media, respectively.
In view of the formulation challenges associated with the physical properties of the phosphate and oxalate salts, the maleate salt was re-tested in the previously described pH shift dissolution method after undergoing particle size reduction. […]

pKa ([1]; acidic) | solubility ([1]; aqueous buffer, @ pH 8 Free Base, read-out: Intrinsic solubility) | solubility (physchem) | Dissolution profile relative to unmilled maleate salt [2] | Structure (SMILES)
12.1 | 48 µg/mL (≈ 103 µM) | < 100 µg/mL | – | CC#CC(=O)N1CCC[C@H]1c1nc(-c2ccc(C(=O)Nc3ccccn3)cc2)c2c(N)nccn12 [acalabrutinib free base, 4-{8-amino-3-[(2S)-1-(but-2-ynoyl)pyrrolidin-2-yl]imidazo[1,5-a]pyrazin-1-yl}-N-(pyridin-2-yl)benzamide]
– | – | – | significantly improved | CC#CC(=O)N1CCC[C@H]1c1nc(-c2ccc(C(=O)Nc3ccccn3)cc2)c2c(N)nccn12.O=C(O)/C=C\C(=O)O [micronized maleate salt]
